Values after ≈ are worked out from the molar mass of the structure shown. Where only a bound is given, the exact number is not on record here.

One may read the IC50 as the concentration that gives 50% inhibition. In general, inhibition in vivo refers to the drop in the measured response relative to a control, in per cent. As usually defined, the Cmax is the highest concentration seen after dosing. The AUC is concentration integrated over time. Usually bioavailability stands for dose-corrected exposure relative to a reference, in per cent. For orientation: solubility means how much of the substance goes into solution per volume. The term half-life denotes the time needed for the level to fall by half in the phase considered. As usually defined, the clearance is the volume of plasma or blood freed of the substance per unit of time.

For series [1], the species on record is Homo sapiens. In words: Selectivity ratio of IC50 for human MMP-13 to IC50 for human MMP-12.
Series [2] is filed under the species Homo sapiens. Description: Selectivity ratio of IC50 for human MMP-8 to IC50 for human MMP-12.
In series [3] the target is Macrophage metalloelastase (Homo sapiens, UniProt P39900). In words: Inhibition of human MMP-12.
Chain of Macrophage metalloelastase (Homo sapiens, UniProt P39900) (P39900 whole entry): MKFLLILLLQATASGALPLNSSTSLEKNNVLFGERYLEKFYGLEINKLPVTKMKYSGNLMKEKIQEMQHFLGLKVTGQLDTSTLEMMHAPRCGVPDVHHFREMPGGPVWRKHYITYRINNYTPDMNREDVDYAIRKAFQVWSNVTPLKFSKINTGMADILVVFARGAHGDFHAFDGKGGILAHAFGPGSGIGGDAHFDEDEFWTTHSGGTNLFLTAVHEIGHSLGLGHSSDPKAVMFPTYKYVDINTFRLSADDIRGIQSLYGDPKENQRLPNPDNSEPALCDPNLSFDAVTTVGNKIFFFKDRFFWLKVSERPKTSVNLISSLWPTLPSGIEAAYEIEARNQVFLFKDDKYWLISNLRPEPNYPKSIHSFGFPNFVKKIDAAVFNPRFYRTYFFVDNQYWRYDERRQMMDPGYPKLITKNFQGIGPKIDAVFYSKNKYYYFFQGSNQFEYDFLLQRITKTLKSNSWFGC
Series [4] has as its system Mus musculus. Description: Inhibition of human recombinant MMP12-mediated ear swelling in C57BL/6 mouse at 10 mg/kg, po bid administered 12 hrs and 2 hrs prior to challenge measured after 2 hrs relative to vehicle treated control. Type of series: functional.
Series [5] concerns the target Voltage-gated inwardly rectifying potassium channel KCNH2 (Homo sapiens, UniProt Q12809). Description: Inhibition of human ERG.
A further series addresses Stromelysin-1 (Homo sapiens, UniProt P08254). Description: Inhibition of human MMP-3.
The target of series [6] is 72 kDa type IV collagenase (Homo sapiens, UniProt P08253). Description: Inhibition of human MMP-2.
Chain of 72 kDa type IV collagenase (P08253 whole entry): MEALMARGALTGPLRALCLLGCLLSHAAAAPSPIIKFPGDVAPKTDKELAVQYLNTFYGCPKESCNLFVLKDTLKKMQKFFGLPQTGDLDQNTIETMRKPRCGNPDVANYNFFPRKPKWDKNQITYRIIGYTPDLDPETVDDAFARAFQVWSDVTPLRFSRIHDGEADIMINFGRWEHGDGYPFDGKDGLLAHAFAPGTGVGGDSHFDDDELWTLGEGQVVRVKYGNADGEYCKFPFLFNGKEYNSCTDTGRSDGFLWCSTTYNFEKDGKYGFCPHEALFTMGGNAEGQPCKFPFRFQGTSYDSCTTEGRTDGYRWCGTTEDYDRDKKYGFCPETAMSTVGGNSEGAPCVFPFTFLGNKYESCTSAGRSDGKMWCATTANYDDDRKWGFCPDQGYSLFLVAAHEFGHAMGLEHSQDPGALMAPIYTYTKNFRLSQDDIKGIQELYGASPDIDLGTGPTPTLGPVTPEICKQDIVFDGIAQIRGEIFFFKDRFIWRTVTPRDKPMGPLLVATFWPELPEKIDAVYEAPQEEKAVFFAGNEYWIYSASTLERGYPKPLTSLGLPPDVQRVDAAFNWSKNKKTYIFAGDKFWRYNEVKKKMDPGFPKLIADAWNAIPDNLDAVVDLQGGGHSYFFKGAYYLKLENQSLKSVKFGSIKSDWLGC
The next series deals with Collagenase 3 (Homo sapiens, UniProt P45452). In words: Inhibition of human MMP-13.
Series [7] in a line: Inhibition of monkey MMP-12. Set-up: species or system Macaca mulatta.
Series [8] has as its target Macrophage metalloelastase (Mus musculus, UniProt P34960). In words: Inhibition of mouse MMP-12.
A short description of series [9]: Volume of distribution at steady state in C57BL/6 mouse at 2 mg/kg, iv. Type of series: ADME, organism-based. Set-up: dose 2 mg/kg, route intravenous. Particulars: in vivo, read-out: Vdss.
Series [10] has as its system Mus musculus. Description: Inhibition of human recombinant MMP12-induced lung inflammation in C57BL/6 mouse assessed as reduction in bronchoalveolar lavage inflammation at 10 mg/kg, po bid administered at 2 hrs prior to and 12 hrs post challenge measured 24 hrs after last challenge relative to vehicle treated control. Type of series: functional. Particulars: C57BL/6, Lung.

Series [11] relates to Mus musculus. Description: Inhibition of human recombinant MMP12-induced lung inflammation in C57BL/6 mouse assessed as reduction in bronchoalveolar lavage inflammation at 5 mg/kg, po bid at 2 hrs prior to and 12 hrs post challenge measured 24 hrs after last challenge relative to vehicle treated control. The series is classed as functional. Particulars: C57BL/6, Lung.
The nature of series [12]: Cmax in C57BL/6 mouse at 10 mg/kg, po. Type of series: ADME, organism-based. Details: dose 10 mg/kg, route oral. Particulars: in vivo.
For series [13], the system named is Mus musculus. Description: Inhibition of human recombinant MMP12-mediated ear swelling in C57BL/6 mouse at 3 mg/kg, po bid administered 12 hrs and 2 hrs prior to challenge measured after 2 hrs relative to vehicle treated control. The series is classed as functional.
The target of a further series is T1, Matrilysin (Homo sapiens, UniProt P09237).
T1 sequence (P09237 whole entry): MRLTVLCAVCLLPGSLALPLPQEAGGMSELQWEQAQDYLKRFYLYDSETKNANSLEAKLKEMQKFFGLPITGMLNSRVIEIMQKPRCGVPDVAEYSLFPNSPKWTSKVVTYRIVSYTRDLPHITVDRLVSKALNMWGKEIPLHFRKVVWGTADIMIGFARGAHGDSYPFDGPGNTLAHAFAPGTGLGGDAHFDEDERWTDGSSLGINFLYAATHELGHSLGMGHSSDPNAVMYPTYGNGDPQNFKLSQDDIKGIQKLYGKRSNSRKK
In words: Inhibition of human MMP-7.

Series [14] deals with Mus musculus. Description: Inhibition of human recombinant MMP12-induced lung inflammation in po dosed C57BL/6 mouse assessed as minimum effective dose for reduction in Bronchoalveolar Lavage inflammation administered bid at 2 hrs prior to and 12 hrs post challenge measured 24 hrs after last challenge. Type of series: functional. Particulars: C57BL/6, po, read-out: MED.
The subject of series [15] is Mus musculus. In words: Inhibition of human recombinant MMP12-mediated ear swelling in C57BL/6 mouse at 30 mg/kg, po bid administered 12 hrs and 2 hrs prior to challenge measured after 2 hrs relative to vehicle treated control. Type of series: functional.
A short description of series [16]: AUC in C57BL/6 mouse at 10 mg/kg, po. Type of series: ADME, organism-based. Set-up: dose 10 mg/kg, route oral. Particulars: plasma.
For the next series, the target named is Neutrophil collagenase (Homo sapiens, UniProt P22894). Description: Inhibition of human MMP-8.
Chain of Neutrophil collagenase (P22894 whole entry): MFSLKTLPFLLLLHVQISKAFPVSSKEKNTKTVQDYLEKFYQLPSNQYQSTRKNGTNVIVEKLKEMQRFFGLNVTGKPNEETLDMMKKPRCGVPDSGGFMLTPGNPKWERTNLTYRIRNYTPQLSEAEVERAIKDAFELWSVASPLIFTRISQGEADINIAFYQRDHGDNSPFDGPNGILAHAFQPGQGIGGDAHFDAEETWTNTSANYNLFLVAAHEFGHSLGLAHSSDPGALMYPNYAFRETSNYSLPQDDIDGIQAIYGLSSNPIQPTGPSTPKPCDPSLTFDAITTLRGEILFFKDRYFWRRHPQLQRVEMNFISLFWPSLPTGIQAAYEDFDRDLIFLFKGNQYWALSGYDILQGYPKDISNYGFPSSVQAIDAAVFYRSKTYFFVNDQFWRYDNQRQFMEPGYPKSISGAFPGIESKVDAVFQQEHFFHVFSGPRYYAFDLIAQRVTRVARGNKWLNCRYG
Series [17] in a line: Oral bioavailability in C57BL/6 mouse at 10 mg/kg. Particulars: in vivo. Type of series: ADME, organism-based.
Series [18] concerns the target Macrophage metalloelastase (Oryctolagus cuniculus, UniProt P79227). In words: Inhibition of rabbit MMP-12.
Series [19] in a line: Inhibition of sheep MMP-12. Set-up: species or system Ovis aries.
A short description of series [20]: Aqueous solubility of the compound at pH 7.4. Type of series: physicochemical. Particulars: buffer.
Series [21] in a line: Half life in C57BL/6 mouse at 10 mg/kg, po. Set-up: dose 10 mg/kg, route oral. The series is classed as ADME, organism-based. Particulars: in vivo.
In series [22] the target is Matrix metalloproteinase-12 (Canis lupus familiaris, UniProt A9X4R8). In words: Inhibition of dog MMP-12.
Chain of Matrix metalloproteinase-12 (A9X4R8 whole entry): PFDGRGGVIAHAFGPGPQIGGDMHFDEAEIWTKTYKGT
Series [23] deals with Matrix metalloproteinase-9 (Homo sapiens, UniProt P14780). In words: Inhibition of human MMP-9.
Chain of Matrix metalloproteinase-9 (P14780 whole entry): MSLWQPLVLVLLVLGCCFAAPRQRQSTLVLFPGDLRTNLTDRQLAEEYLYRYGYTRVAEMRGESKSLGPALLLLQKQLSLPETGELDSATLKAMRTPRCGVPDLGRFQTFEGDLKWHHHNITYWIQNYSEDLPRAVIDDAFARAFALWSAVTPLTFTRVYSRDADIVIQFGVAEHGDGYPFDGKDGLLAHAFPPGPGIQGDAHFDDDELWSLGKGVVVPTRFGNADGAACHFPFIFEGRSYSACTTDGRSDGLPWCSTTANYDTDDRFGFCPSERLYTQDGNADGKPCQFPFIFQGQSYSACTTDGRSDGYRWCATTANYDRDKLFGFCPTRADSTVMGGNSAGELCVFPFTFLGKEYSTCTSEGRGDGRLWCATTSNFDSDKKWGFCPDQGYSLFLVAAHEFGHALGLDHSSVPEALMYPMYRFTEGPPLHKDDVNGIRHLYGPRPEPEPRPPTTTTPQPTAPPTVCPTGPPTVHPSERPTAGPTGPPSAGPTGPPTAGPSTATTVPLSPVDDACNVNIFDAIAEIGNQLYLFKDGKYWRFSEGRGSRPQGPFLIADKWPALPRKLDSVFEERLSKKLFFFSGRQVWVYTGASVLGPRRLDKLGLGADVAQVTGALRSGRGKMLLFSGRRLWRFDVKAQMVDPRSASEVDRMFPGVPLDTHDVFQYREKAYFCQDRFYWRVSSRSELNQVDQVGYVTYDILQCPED
A short description of series [24]: Clearance in C57BL/6 mouse at 2 mg/kg, iv. The series is classed as ADME, organism-based. Details: dose 2 mg/kg, route intravenous. Particulars: in vivo.
In another series the test system is Salmonella typhimurium. Description: Mutagenicity in Salmonella Typhimurium by AMES test. Particulars: salmonella enterica subsp. enterica serovar typhimurium. Type of series: toxicity, organism-based.

Chain of Voltage-gated inwardly rectifying potassium channel KCNH2 (Q12809 whole entry): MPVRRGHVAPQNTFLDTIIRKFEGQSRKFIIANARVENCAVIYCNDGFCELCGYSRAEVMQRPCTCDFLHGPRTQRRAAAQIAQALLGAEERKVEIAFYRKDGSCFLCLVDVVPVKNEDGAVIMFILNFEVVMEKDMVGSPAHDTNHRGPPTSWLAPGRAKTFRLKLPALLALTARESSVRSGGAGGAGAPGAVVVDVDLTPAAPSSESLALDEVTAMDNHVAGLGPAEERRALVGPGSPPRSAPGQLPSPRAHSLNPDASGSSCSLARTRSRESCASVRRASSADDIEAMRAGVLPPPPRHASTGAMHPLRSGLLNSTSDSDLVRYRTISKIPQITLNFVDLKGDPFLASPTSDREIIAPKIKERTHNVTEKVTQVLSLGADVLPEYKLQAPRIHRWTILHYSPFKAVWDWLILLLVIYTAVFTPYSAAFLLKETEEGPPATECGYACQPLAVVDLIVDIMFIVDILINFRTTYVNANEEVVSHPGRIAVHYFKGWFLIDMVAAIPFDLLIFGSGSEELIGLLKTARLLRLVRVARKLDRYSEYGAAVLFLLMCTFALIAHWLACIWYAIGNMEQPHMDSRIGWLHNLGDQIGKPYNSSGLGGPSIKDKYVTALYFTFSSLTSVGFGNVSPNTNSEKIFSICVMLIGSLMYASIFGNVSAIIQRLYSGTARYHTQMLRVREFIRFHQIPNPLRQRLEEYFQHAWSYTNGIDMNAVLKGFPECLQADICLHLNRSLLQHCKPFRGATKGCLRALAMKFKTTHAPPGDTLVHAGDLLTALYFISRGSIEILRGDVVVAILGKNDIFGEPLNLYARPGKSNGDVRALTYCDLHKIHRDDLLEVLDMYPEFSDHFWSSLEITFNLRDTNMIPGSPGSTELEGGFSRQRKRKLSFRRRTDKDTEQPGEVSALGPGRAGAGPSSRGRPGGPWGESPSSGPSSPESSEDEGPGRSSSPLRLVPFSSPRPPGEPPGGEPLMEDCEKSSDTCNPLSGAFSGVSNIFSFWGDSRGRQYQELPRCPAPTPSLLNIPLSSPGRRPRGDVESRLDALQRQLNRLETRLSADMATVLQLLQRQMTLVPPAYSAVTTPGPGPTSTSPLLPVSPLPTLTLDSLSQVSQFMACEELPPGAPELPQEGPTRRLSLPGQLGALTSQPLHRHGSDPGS
Chain of Macrophage metalloelastase (Oryctolagus cuniculus, UniProt P79227) (P79227 whole entry): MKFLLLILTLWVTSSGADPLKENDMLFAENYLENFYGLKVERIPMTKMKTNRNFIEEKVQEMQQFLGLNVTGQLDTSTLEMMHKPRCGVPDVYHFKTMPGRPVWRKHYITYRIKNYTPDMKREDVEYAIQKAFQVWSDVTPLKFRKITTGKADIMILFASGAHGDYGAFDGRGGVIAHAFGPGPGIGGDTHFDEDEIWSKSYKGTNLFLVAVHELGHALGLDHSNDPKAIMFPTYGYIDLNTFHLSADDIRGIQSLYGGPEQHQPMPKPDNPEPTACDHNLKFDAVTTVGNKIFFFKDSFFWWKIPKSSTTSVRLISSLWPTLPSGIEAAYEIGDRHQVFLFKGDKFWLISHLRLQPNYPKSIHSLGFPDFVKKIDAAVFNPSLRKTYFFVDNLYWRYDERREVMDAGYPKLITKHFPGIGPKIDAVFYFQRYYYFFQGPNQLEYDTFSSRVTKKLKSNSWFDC
Chain of Macrophage metalloelastase (Mus musculus, UniProt P34960) (P34960 whole entry): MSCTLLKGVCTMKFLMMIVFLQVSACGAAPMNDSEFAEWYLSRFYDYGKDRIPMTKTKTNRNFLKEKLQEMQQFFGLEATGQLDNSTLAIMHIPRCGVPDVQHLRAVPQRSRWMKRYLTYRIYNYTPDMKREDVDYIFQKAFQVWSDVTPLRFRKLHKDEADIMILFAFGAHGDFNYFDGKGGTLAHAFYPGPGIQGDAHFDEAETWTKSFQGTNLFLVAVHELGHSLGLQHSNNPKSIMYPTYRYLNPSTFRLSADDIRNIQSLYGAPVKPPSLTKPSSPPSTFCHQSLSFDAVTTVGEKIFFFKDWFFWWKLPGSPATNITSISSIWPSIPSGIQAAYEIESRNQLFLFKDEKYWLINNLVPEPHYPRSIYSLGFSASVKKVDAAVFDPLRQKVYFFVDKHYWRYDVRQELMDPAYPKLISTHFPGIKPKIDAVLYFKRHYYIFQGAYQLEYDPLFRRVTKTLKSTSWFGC
Chain of Stromelysin-1 (P08254 whole entry): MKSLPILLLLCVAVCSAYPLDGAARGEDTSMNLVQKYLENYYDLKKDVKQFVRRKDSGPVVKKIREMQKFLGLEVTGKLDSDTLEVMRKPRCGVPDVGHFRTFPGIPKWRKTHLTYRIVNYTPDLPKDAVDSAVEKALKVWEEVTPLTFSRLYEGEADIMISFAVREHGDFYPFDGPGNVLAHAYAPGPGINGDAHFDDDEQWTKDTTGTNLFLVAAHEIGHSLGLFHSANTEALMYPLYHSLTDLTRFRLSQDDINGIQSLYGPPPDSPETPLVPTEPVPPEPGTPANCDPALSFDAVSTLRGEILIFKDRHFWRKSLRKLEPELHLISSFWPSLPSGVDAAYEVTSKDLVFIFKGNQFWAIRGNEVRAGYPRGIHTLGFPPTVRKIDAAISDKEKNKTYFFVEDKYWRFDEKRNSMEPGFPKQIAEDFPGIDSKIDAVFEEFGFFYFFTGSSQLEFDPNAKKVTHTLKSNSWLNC

In the case of `CC(C)[C@H](NS(=O)(=O)c1ccc2c(c1)oc1ccc(-c3cccs3)cc12)C(=O)O`, the Ratio IC50 was found to be 1690 in the series filed under Homo sapiens [1] and 100 in the series listed under Homo sapiens [2].

Take `CC(C)[C@H](NS(=O)(=O)c1ccc2c(c1)oc1ccc(-c3ccoc3)cc12)C(=O)O`: the results for the Ratio IC50 in the series filed under Homo sapiens [1] and in the series listed under Homo sapiens [2] were 900 and 33, respectively.

For the compound `CC(C)[C@H](NS(=O)(=O)c1ccc2c(c1)oc1ccc(-n3ccc(C(F)(F)F)n3)cc12)C(=O)O`, the Ratio IC50 was 349 in the series filed under Homo sapiens [1] and 44 in the series filed under Homo sapiens [2].

Regarding `CC(C)[C@H](NS(=O)(=O)c1ccc2c(c1)oc1ccc(-c3ccc[nH]3)cc12)C(=O)O`, the Ratio IC50 is 525 in the series listed under Homo sapiens [1] and 143 in the series listed under Homo sapiens [2].

As to `CC(C)[C@H](NS(=O)(=O)c1ccc2c(c1)oc1ccc(-c3cc[nH]n3)cc12)C(=O)O`, the values for the Ratio IC50 in the series filed under Homo sapiens [1] and in the series filed under Homo sapiens [2] were more than 1130 and more than 2500, respectively. This compound showed an IC50 in series [3] of less than 1 nM.

On to `CC(C)[C@H](NS(=O)(=O)c1ccc2c(c1)oc1ccc(-c3noc(C4CCC4)n3)cc12)C(=O)O`, for which the Ratio IC50 in the series listed under Homo sapiens [2] worked out at 44.

As to `CC(C)[C@H](NS(=O)(=O)c1ccc2c(c1)oc1ccc(N3CCNCC3)cc12)C(=O)O`, the Ratio IC50 in the series filed under Homo sapiens [1] amounted to 34; in the series filed under Homo sapiens [2], 2.

As for `Cc1ccc(-c2ccc3oc4cc(S(=O)(=O)N[C@H](C(=O)O)C(C)C)ccc4c3c2)s1`, the Ratio IC50 in the series listed under Homo sapiens [1] turned out to be 1200; in the series filed under Homo sapiens [2], 125.

For `Cc1cnc(-c2ccc3oc4cc(S(=O)(=O)N[C@H](C(=O)O)C(C)C)ccc4c3c2)s1`, the Ratio IC50 in the series filed under Homo sapiens [1] stood at 460; in the series listed under Homo sapiens [2] it was 158.

`CC(C)[C@H](NS(=O)(=O)c1ccc2c(c1)oc1ccc(-c3noc(-c4ccccc4)n3)cc12)C(=O)O`: the Ratio IC50 in the series filed under Homo sapiens [2] was 60.

As for `CC(C)[C@H](NS(=O)(=O)c1ccc2c(c1)oc1ccc(-c3noc(C4CC4)n3)cc12)C(=O)O`, in the series filed under Homo sapiens [2], the Ratio IC50 amounted to 56.

On to `CC(C)[C@H](NS(=O)(=O)c1ccc2c(c1)oc1ccc(-c3nccs3)cc12)C(=O)O`, for which the inhibition in vivo at 10 mg/kg in the series on Mus musculus [4] is 38.6%; in the series on Mus musculus [10], more than 50%. The “inhibition (INH)” value in series [5] is recorded as “Not Active”. Further, the IC50 came out at 2530 nM against Stromelysin-1; 501 nM in series [6]; 1980 nM against Collagenase 3; 244 nM in series [7]; 85 nM in [8]; 57700 nM against Matrilysin. Moreover, the IC50 came out at 154 nM against Neutrophil collagenase; 57 nM in [18]; 5.4 nM in [19]; 70 nM in series [22]; 1970 nM in series [23]. Further, the Ratio IC50 in the series filed under Homo sapiens [1] is 1980; in the series filed under Homo sapiens [2] it was 154. Moreover, the Vd in series [9] was found to be 0.8 L/kg. In addition, in the series on Mus musculus [11], the inhibition in vivo at 5 mg/kg is more than 50%. Moreover, the highest level in series [12] (Cmax) was 5550 ng/mL. In addition, the inhibition in vivo at 3 mg/kg in the series with Mus musculus [13] was found to be 24.9%. Further, the minimal effective dose with Mus musculus [14] was 5 mg/kg. The inhibition in vivo at 30 mg/kg in the series with Mus musculus [15] is 65.2%. In series [16], this compound gave an AUC of 20300 ng·h/mL. Besides, the bioavailability in series [17] is 63%. This compound had a solubility in series [20] of 550 µg/mL (≈ 1280 µM). In [21], this compound gave a half-life of 2.9 h. This compound returned a clearance in [24] of 5 mL/min/kg. In addition, the Activity entry in the series with Salmonella typhimurium is on record as “Non-toxic”.

As to `CC(C)[C@H](NS(=O)(=O)c1ccc2c(c1)oc1ccc(N3CCOCC3)cc12)C(=O)O`, the values for the Ratio IC50 in the series filed under Homo sapiens [1] and in the series listed under Homo sapiens [2] were 154 and 3, respectively.

As to `COCc1nc(-c2ccc3oc4cc(S(=O)(=O)N[C@H](C(=O)O)C(C)C)ccc4c3c2)no1`, in the series filed under Homo sapiens [2], the Ratio IC50 is 10.

For the compound `CC(C)[C@H](NS(=O)(=O)c1ccc2c(c1)oc1ccc(N3CCN(C)CC3)cc12)C(=O)O`, the Ratio IC50 in the series listed under Homo sapiens [1] was 38; in the series filed under Homo sapiens [2], 0.5.

Regarding `CC(C)[C@H](NS(=O)(=O)c1ccc2c(c1)oc1ccc(-c3noc(C4CCOC4)n3)cc12)C(=O)O` (some centres undefined), in the series listed under Homo sapiens [2], the Ratio IC50 is 100.

As for `CC(C)c1nc(-c2ccc3oc4cc(S(=O)(=O)N[C@H](C(=O)O)C(C)C)ccc4c3c2)no1`, the Ratio IC50 in the series filed under Homo sapiens [2] worked out at 19.

As to `CC(C)[C@H](NS(=O)(=O)c1ccc2c(c1)oc1ccc(-c3noc(C(F)(F)F)n3)cc12)C(=O)O`, the Ratio IC50 in the series filed under Homo sapiens [2] came to 45.

As to `CC(C)[C@H](NS(=O)(=O)c1ccc2c(c1)oc1ccc(-n3cncn3)cc12)C(=O)O`, the Ratio IC50 was determined as 34 in the series filed under Homo sapiens [1] and 4 in the series filed under Homo sapiens [2].

In the case of `CC(C)[C@H](NS(=O)(=O)c1ccc2c(c1)oc1ccc(-n3cccn3)cc12)C(=O)O`, the Ratio IC50 was 37 in the series filed under Homo sapiens [1] and 15 in the series listed under Homo sapiens [2].

As for `CCc1nc(-c2ccc3oc4cc(S(=O)(=O)N[C@H](C(=O)O)C(C)C)ccc4c3c2)no1`, in the series listed under Homo sapiens [2], the Ratio IC50 amounted to 1.4.

As to `CC(C)[C@H](NS(=O)(=O)c1ccc2c(c1)oc1ccc(-c3ccc(Cl)o3)cc12)C(=O)O`, the figures for the Ratio IC50 in the series filed under Homo sapiens [1] and in the series filed under Homo sapiens [2] were 1440 and 70, respectively.

In the case of `COC(=O)Nc1ccc2oc3cc(S(=O)(=O)N[C@H](C(=O)O)C(C)C)ccc3c2c1`, in the series listed under Homo sapiens [1], the Ratio IC50 came to 60.

For the origin of these results see ChEMBL document CHEMBL1933042, “Discovery of potent and selective matrix metalloprotease 12 inhibitors for the potential treatment of chronic obstructive pulmonary disease (COPD)” (Bioorg Med Chem Lett, 2012).
